Assay results from ChEMBL document CHEMBL2074357, “Identification and functional assessment of the novel murine organic anion transporter Oat5 (Slc22a19) expressed in kidney” (Am J Physiol Renal Physiol, 2004).

Legend:
Assay type in all cases: functional, cell-based
[1] = biological target: T1, Solute carrier family 22 member 19 (Mus musculus) (UniProt Q8VCA0); assay: TP_TRANSPORTER: inhibition of (Ochratoxin A: 0.5uM) of 2,4-dichlorophenoxyacetic acid at a concentration of 100uM in Oat5-expressing oocytes; parameters: scale not given: the % may be the effect or the level left; conditions: Xenopus laevis, Oocyte
T1 sequence (whole entry): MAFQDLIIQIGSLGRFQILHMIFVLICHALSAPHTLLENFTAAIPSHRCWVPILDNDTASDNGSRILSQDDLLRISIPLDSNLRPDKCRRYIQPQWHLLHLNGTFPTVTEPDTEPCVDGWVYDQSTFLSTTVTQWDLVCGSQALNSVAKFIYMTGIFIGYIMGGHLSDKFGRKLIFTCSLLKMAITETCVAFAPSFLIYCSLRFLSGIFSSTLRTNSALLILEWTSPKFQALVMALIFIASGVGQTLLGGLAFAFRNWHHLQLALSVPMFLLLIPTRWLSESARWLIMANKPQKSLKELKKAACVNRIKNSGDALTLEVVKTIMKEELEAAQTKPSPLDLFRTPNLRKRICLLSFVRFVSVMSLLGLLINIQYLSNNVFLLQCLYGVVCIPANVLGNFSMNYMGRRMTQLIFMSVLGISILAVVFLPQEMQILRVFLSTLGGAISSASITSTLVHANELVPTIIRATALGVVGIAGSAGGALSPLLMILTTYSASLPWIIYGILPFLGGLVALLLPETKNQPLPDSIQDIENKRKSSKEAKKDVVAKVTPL

[2] = biological target: T1, Solute carrier family 22 member 19 (Mus musculus); assay: TP_TRANSPORTER: inhibition of (Ochratoxin A: 0.5uM) of Estrone-3-sulfate at a concentration of 100uM in Oat5-expressing oocytes; parameters: scale not given: the % may be the effect or the level left; conditions: Xenopus laevis, Oocyte
[3] = biological target: T1, Solute carrier family 22 member 19 (Mus musculus); assay: TP_TRANSPORTER: inhibition of (Ochratoxin A: 0.5uM) of Probenecid at a concentration of 1000uM in Oat5-expressing Xenopus oocytes; parameters: scale not given: the % may be the effect or the level left; conditions: Xenopus laevis, Oocyte
[4] = substrate: C[C@@H]1Cc2c(Cl)cc(C(=O)N[C@@H](Cc3ccccc3)C(=O)O)c(O)c2C(=O)O1; assay: TP_TRANSPORTER: uptake in Oat5-expressing oocytes; conditions: Xenopus laevis; Oocyte

## O=C(O)COc1ccc(Cl)cc1Cl
[1]
  Activity: 25%

## C[C@]12CC[C@@H]3c4ccc(OS(=O)(=O)O)cc4CC[C@H]3[C@@H]1CCC2=O
[2]
  Activity: 5%

## CCCN(CCC)S(=O)(=O)c1ccc(C(=O)O)cc1
[3]
  Activity: 25%

B1: Solute carrier family 22 member 19 (Mus musculus), Q8VCA0 (protein)
chain: T1 sequence (whole entry)
[4]
  Km: 2 µM
